Measured values from ChEMBL document CHEMBL4346757, “Synthesis and biological evaluation of 7-methoxy-1-(3,4,5-trimethoxyphenyl)-4,5-dihydro-2H-benzo[e]indazoles as new colchicine site inhibitors” (Bioorg Med Chem Lett, 2019).

Key:
Assay type in all cases: functional
KM12 [1] = test: Growth inhibition of human KM12 cells assessed as cell growth at 0.1 uM after 48 hrs by SRB assay relative to control; conditions: KM12, 48 h, read-out: Activity
T47D = test: Growth inhibition of human T47D cells assessed as cell growth at 100 uM after 48 hrs by SRB assay relative to control; conditions: read-out: Activity
HCC 2998 [2] = test: Growth inhibition of human HCC2998 cells assessed as cell growth at 0.01 uM after 48 hrs by SRB assay relative to control; conditions: HCC 2998, 48 h, read-out: Activity
HT-29 = test: Growth inhibition of human HT-29 cells assessed as cell growth at 100 uM after 48 hrs by SRB assay relative to control; conditions: HT-29, 48 h, read-out: Activity
RXF 393 [3] = test: Growth inhibition of human RXF393 cells assessed as cell growth at 0.01 uM after 48 hrs by SRB assay relative to control; conditions: RXF 393, 48 h, read-out: Activity
SK-MEL-2 = test: Growth inhibition of human SK-MEL-2 cells assessed as cell growth at 1 uM after 48 hrs by SRB assay relative to control; conditions: SK-MEL-2, 48 h, read-out: Activity
OVCAR-3 = test: Growth inhibition of human OVCAR3 cells assessed as cell growth at 0.1 uM after 48 hrs by SRB assay relative to control; conditions: OVCAR-3, 48 h, read-out: Activity
COLO 205 [4] = test: Growth inhibition of human COLO205 cells assessed as cell growth at 0.1 uM after 48 hrs by SRB assay relative to control; conditions: COLO 205, 48 h, read-out: Activity
786-0 = test: Growth inhibition of human 786-0 cells assessed as cell growth at 100 uM after 48 hrs by SRB assay relative to control; conditions: 786-0, 48 h, read-out: Activity
SF-539 = test: Growth inhibition of human SF539 cells assessed as cell growth at 10 uM after 48 hrs by SRB assay relative to control; conditions: SF-539, 48 h, read-out: Activity
NCI-H460 = test: Growth inhibition of human NCI-H460 cells assessed as cell growth at 0.01 uM after 48 hrs by SRB assay relative to control; conditions: NCI-H460, 48 h, read-out: Activity
CCRF-CEM = test: Growth inhibition of human CCRF-CEM cells assessed as cell growth at 10 uM after 48 hrs by SRB assay relative to control; conditions: read-out: Activity
KM12 [5] = test: Growth inhibition of human KM12 cells assessed as cell growth at 100 uM after 48 hrs by SRB assay relative to control; conditions: KM12, 48 h, read-out: Activity
BT-549 [6] = test: Growth inhibition of human BT549 cells assessed as cell growth at 0.01 uM after 48 hrs by SRB assay relative to control; conditions: BT-549, 48 h, read-out: Activity
SF-295 = test: Growth inhibition of human SF295 cells assessed as cell growth at 10 uM after 48 hrs by SRB assay relative to control; conditions: SF-295, 48 h, read-out: Activity
M14 = test: Growth inhibition of human M14 cells assessed as cell growth at 10 uM after 48 hrs by SRB assay relative to control; conditions: M14, 48 h, read-out: Activity
A549 = test: Growth inhibition of human A549/ATCC cells assessed as cell growth at 1 uM after 48 hrs by SRB assay relative to control; conditions: A549, 48 h, read-out: Activity
UACC-257 = test: Growth inhibition of human UACC257 cells assessed as cell growth at 100 uM after 48 hrs by SRB assay relative to control; conditions: UACC-257, 48 h, read-out: Activity
DU-145 = test: Growth inhibition of human DU145 cells assessed as cell growth at 0.1 uM after 48 hrs by SRB assay relative to control; conditions: DU-145, 48 h, read-out: Activity
K562 = test: Growth inhibition of human K562 cells assessed as cell growth at 0.1 uM after 48 hrs by SRB assay relative to control; conditions: K562, 48 h, read-out: Activity
OVCAR-5 = test: Growth inhibition of human OVCAR5 cells assessed as cell growth at 100 uM after 48 hrs by SRB assay relative to control; conditions: OVCAR-5, 48 h, read-out: Activity
COLO 205 [7] = test: Growth inhibition of human COLO205 cells assessed as cell growth at 100 uM after 48 hrs by SRB assay relative to control; conditions: COLO 205, 48 h, read-out: Activity
SF-268 = test: Growth inhibition of human SF268 cells assessed as cell growth at 10 uM after 48 hrs by SRB assay relative to control; conditions: SF-268, 48 h, read-out: Activity
Hs-578T = test: Cytotoxicity against human Hs 578T cells assessed as growth inhibition after 48 hrs by SRB assay
PC-3 = test: Growth inhibition of human PC3 cells assessed as cell growth at 0.01 uM after 48 hrs by SRB assay relative to control; conditions: PC-3, 48 h, read-out: Activity
HCC 2998 [8] = test: Growth inhibition of human HCC2998 cells assessed as cell growth at 0.1 uM after 48 hrs by SRB assay relative to control; conditions: HCC 2998, 48 h, read-out: Activity
RXF 393 [9] = test: Growth inhibition of human RXF393 cells assessed as cell growth at 100 uM after 48 hrs by SRB assay relative to control; conditions: RXF 393, 48 h, read-out: Activity
EKVX = test: Growth inhibition of human EKVX cells assessed as cell growth at 0.01 uM after 48 hrs by SRB assay relative to control; conditions: read-out: Activity
HOP-62 = test: Growth inhibition of human HOP62 cells assessed as cell growth at 0.1 uM after 48 hrs by SRB assay relative to control; conditions: HOP-62, 48 h, read-out: Activity
BT-549 [10] = test: Cytotoxicity against human BT549 cells assessed as growth inhibition after 48 hrs by SRB assay; conditions: BT-549, 48 h
HOP-92 = test: Growth inhibition of human HOP92 cells assessed as cell growth at 0.01 uM after 48 hrs by SRB assay relative to control; conditions: HOP-92, 48 h, read-out: Activity
MCF7 = test: Growth inhibition of human MCF7 cells assessed as cell growth at 0.01 uM after 48 hrs by SRB assay relative to control; conditions: MCF7, 48 h, read-out: Activity
BT-549 [11] = test: Growth inhibition of human BT549 cells assessed as cell growth at 10 uM after 48 hrs by SRB assay relative to control; conditions: BT-549, 48 h, read-out: Activity
NCI-H322M = test: Growth inhibition of human NCI-H322M cells assessed as cell growth at 0.1 uM after 48 hrs by SRB assay relative to control; conditions: read-out: Activity

COc1ccc2c(c1)CCc1n[nH]c(-c3cc(OC)c(OC)c(OC)c3)c1-2
growth at 0.1 µM (KM12 [1]): 10%
growth at 100 µM (T47D): -72%
growth at 0.01 µM (HCC 2998 [2]): 15%
growth at 100 µM (HT-29): -72%
growth at 0.01 µM (RXF 393 [3]): -8%
growth at 1 µM (SK-MEL-2): 42%
growth at 0.1 µM (OVCAR-3): 12%
growth at 0.1 µM (COLO 205 [4]): -46%
growth at 100 µM (786-0): -48%
growth at 10 µM (SF-539): -24%
growth at 0.01 µM (NCI-H460): 3%
growth at 10 µM (CCRF-CEM): 41%
growth at 100 µM (KM12 [5]): -78%
growth at 0.01 µM (BT-549 [6]): 4%
growth at 10 µM (SF-295): -5%
growth at 10 µM (M14): 2%
growth at 1 µM (A549): 11%
growth at 100 µM (UACC-257): -49%
growth at 0.1 µM (DU-145): 10%
growth at 0.1 µM (K562): 19%
growth at 100 µM (OVCAR-5): -22%
growth at 100 µM (COLO 205 [7]): -71%
growth at 10 µM (SF-268): 18%
GI50 (Hs-578T; read-out: GI50): < 0.01 µM
LC50 (Hs-578T; read-out: LC50): > 100 µM
TGI (Hs-578T; read-out: TGI): 22.3 µM
GI50 (Hs-578T; read-out: pGI50 (converted)): < 0.01 µM
LC50 (Hs-578T; read-out: pLC50 (converted)): > 100 µM
TGI (Hs-578T; read-out: pTGI (converted)): 22.4 µM
growth at 0.01 µM (PC-3): 20%
growth at 0.1 µM (HCC 2998 [8]): 11%
growth at 100 µM (RXF 393 [9]): -68%
growth at 0.01 µM (EKVX): 48%
growth at 0.1 µM (HOP-62): 6%
GI50 (BT-549 [10]; read-out: GI50): < 0.01 µM
LC50 (50% lethal concentration) (BT-549 [10]; read-out: LC50): > 100 µM
TGI (BT-549 [10]; read-out: TGI): 10.6 µM
GI50 (BT-549 [10]; read-out: pGI50 (converted)): < 0.01 µM
LC50 (50% lethal concentration) (BT-549 [10]; read-out: pLC50 (converted)): > 100 µM
TGI (BT-549 [10]; read-out: pTGI (converted)): 10.7 µM
growth at 0.01 µM (HOP-92): 39%
growth at 0.01 µM (MCF7): 17%
growth at 10 µM (BT-549 [11]): 1%
growth at 0.1 µM (NCI-H322M): 40%
